Test results as given in the NIST ThermoML archive (doi:10.1021/je900596d).

Settings: 362.9 K, Vibrating tube method

FC(F)=C(F)C(F)(F)F [hexafluoropropene]
Settings	mass density [kg/m3]
986.7 kPa, Fluid (supercritical or subcritical phases)	55.35
1010.4 kPa, Fluid (supercritical or subcritical phases)	56.58
1044 kPa, Fluid (supercritical or subcritical phases)	59.01
1060.4 kPa, Fluid (supercritical or subcritical phases)	59.9
1076.4 kPa, Fluid (supercritical or subcritical phases)	61.11
1097.9 kPa, Fluid (supercritical or subcritical phases)	62.31
1119.7 kPa, Fluid (supercritical or subcritical phases)	63.86
1141.5 kPa, Fluid (supercritical or subcritical phases)	65.33
1162.5 kPa, Fluid (supercritical or subcritical phases)	66.89
1202.5 kPa, Fluid (supercritical or subcritical phases)	69.4
1221.4 kPa, Fluid (supercritical or subcritical phases)	70.92
1239.6 kPa, Fluid (supercritical or subcritical phases)	71.99
1257.3 kPa, Fluid (supercritical or subcritical phases)	73.4
1274.3 kPa, Fluid (supercritical or subcritical phases)	74.42
1293.3 kPa, Fluid (supercritical or subcritical phases)	76
1312.3 kPa, Fluid (supercritical or subcritical phases)	77.04
1331.5 kPa, Fluid (supercritical or subcritical phases)	78.67
1349 kPa, Fluid (supercritical or subcritical phases)	79.84
1367.1 kPa, Fluid (supercritical or subcritical phases)	81.15
1388 kPa, Fluid (supercritical or subcritical phases)	82.53
1408.2 kPa, Fluid (supercritical or subcritical phases)	83.98
1429.7 kPa, Fluid (supercritical or subcritical phases)	85.75
1447.9 kPa, Fluid (supercritical or subcritical phases)	86.99
1484.9 kPa, Fluid (supercritical or subcritical phases)	89.9
1503.2 kPa, Fluid (supercritical or subcritical phases)	91.22
1521.3 kPa, Fluid (supercritical or subcritical phases)	92.61
1544.9 kPa, Fluid (supercritical or subcritical phases)	94.44
1567.8 kPa, Fluid (supercritical or subcritical phases)	96.26
1613.4 kPa, Fluid (supercritical or subcritical phases)	99.81
1634.9 kPa, Fluid (supercritical or subcritical phases)	101.65
1655.8 kPa, Fluid (supercritical or subcritical phases)	103.37
1676.7 kPa, Fluid (supercritical or subcritical phases)	104.81
1696.6 kPa, Fluid (supercritical or subcritical phases)	106.47
1716 kPa, Fluid (supercritical or subcritical phases)	108.07
1734.8 kPa, Fluid (supercritical or subcritical phases)	109.59
1753 kPa, Fluid (supercritical or subcritical phases)	111.4
1771.1 kPa, Fluid (supercritical or subcritical phases)	112.78
1788.6 kPa, Fluid (supercritical or subcritical phases)	114.27
1805.4 kPa, Fluid (supercritical or subcritical phases)	115.72
1838.2 kPa, Fluid (supercritical or subcritical phases)	118.54
1868.9 kPa, Fluid (supercritical or subcritical phases)	121.28
1898.3 kPa, Fluid (supercritical or subcritical phases)	124.13
1923.7 kPa, Fluid (supercritical or subcritical phases)	126.25
1953.6 kPa, Fluid (supercritical or subcritical phases)	129.06
1971.3 kPa, Fluid (supercritical or subcritical phases)	130.89
1988.2 kPa, Fluid (supercritical or subcritical phases)	132.28
2005 kPa, Fluid (supercritical or subcritical phases)	133.86
2021.3 kPa, Fluid (supercritical or subcritical phases)	135.65
2037.3 kPa, Fluid (supercritical or subcritical phases)	137.17
2066.9 kPa, Fluid (supercritical or subcritical phases)	140.08
2099 kPa, Fluid (supercritical or subcritical phases)	143.21
2115.6 kPa, Fluid (supercritical or subcritical phases)	144.99
2133.5 kPa, Fluid (supercritical or subcritical phases)	146.69
2152 kPa, Fluid (supercritical or subcritical phases)	148.88
2207.8 kPa, Fluid (supercritical or subcritical phases)	154.82
2239 kPa, Fluid (supercritical or subcritical phases)	158.23
2255.7 kPa, Fluid (supercritical or subcritical phases)	160.15
2279.2 kPa, Fluid (supercritical or subcritical phases)	162.54
2296 kPa, Fluid (supercritical or subcritical phases)	164.49
2320.6 kPa, Fluid (supercritical or subcritical phases)	167.17
2341.1 kPa, Fluid (supercritical or subcritical phases)	169.73
2363.6 kPa, Fluid (supercritical or subcritical phases)	172.35
2382.4 kPa, Fluid (supercritical or subcritical phases)	174.89
2399.2 kPa, Fluid (supercritical or subcritical phases)	176.97
2416.1 kPa, Fluid (supercritical or subcritical phases)	178.92
2454.2 kPa, Fluid (supercritical or subcritical phases)	183.72
2471.2 kPa, Fluid (supercritical or subcritical phases)	185.86
2493.7 kPa, Fluid (supercritical or subcritical phases)	188.92
2510.8 kPa, Fluid (supercritical or subcritical phases)	191.35
2532.7 kPa, Fluid (supercritical or subcritical phases)	194.2
2568.3 kPa, Fluid (supercritical or subcritical phases)	199.28
2584.5 kPa, Fluid (supercritical or subcritical phases)	201.68
2637.6 kPa, Fluid (supercritical or subcritical phases)	209.57
2655.8 kPa, Fluid (supercritical or subcritical phases)	212.2
2673.6 kPa, Fluid (supercritical or subcritical phases)	215.1
2690.3 kPa, Fluid (supercritical or subcritical phases)	217.71
2706.4 kPa, Fluid (supercritical or subcritical phases)	220.44
2736.2 kPa, Fluid (supercritical or subcritical phases)	225.31
2764.5 kPa, Fluid (supercritical or subcritical phases)	230.31
2781.5 kPa, Fluid (supercritical or subcritical phases)	233.26
2809.5 kPa, Fluid (supercritical or subcritical phases)	238.5
2870.6 kPa, Fluid (supercritical or subcritical phases)	250.29
2897.9 kPa, Fluid (supercritical or subcritical phases)	256.08
2916.5 kPa, Fluid (supercritical or subcritical phases)	260.21
2944.7 kPa, Fluid (supercritical or subcritical phases)	266.58
2978.3 kPa, Fluid (supercritical or subcritical phases)	274.33
2997 kPa, Fluid (supercritical or subcritical phases)	278.8
3015.2 kPa, Fluid (supercritical or subcritical phases)	283.34
3032.8 kPa, Fluid (supercritical or subcritical phases)	287.81
3049.7 kPa, Fluid (supercritical or subcritical phases)	292.35
3066.4 kPa, Fluid (supercritical or subcritical phases)	297.12
3119.6 kPa, Fluid (supercritical or subcritical phases)	313.41
3140.3 kPa, Fluid (supercritical or subcritical phases)	320.42
3159.2 kPa, Fluid (supercritical or subcritical phases)	327.22
3176.3 kPa, Fluid (supercritical or subcritical phases)	333.78
3193.5 kPa, Fluid (supercritical or subcritical phases)	340.76
3209.9 kPa, Fluid (supercritical or subcritical phases)	347.93
3229.3 kPa, Fluid (supercritical or subcritical phases)	357.01
3246.9 kPa, Fluid (supercritical or subcritical phases)	366.07
3263.4 kPa, Fluid (supercritical or subcritical phases)	375.24
3285.9 kPa, Fluid (supercritical or subcritical phases)	389.23
3305.8 kPa, Fluid (supercritical or subcritical phases)	403.5
3341.5 kPa, Fluid (supercritical or subcritical phases)	436.07
3360.9 kPa, Fluid (supercritical or subcritical phases)	459.89
3377.9 kPa, Fluid (supercritical or subcritical phases)	530.57
3394.4 kPa, Fluid (supercritical or subcritical phases)	567.77
3410.4 kPa, Fluid (supercritical or subcritical phases)	601.27
3426.7 kPa, Fluid (supercritical or subcritical phases)	633.69
3445.3 kPa, Fluid (supercritical or subcritical phases)	659.79
3463.4 kPa, Fluid (supercritical or subcritical phases)	682.18
3480.7 kPa, Fluid (supercritical or subcritical phases)	701.66
3498.4 kPa, Fluid (supercritical or subcritical phases)	717.14
4505.3 kPa, Fluid (supercritical or subcritical phases)	920.24
4525.6 kPa, Fluid (supercritical or subcritical phases)	921.9
4552.8 kPa, Fluid (supercritical or subcritical phases)	924.12
4579.3 kPa, Fluid (supercritical or subcritical phases)	926.3
4626.5 kPa, Fluid (supercritical or subcritical phases)	929.99
4646.5 kPa, Fluid (supercritical or subcritical phases)	931.47
4666.9 kPa, Fluid (supercritical or subcritical phases)	932.99
4687.6 kPa, Fluid (supercritical or subcritical phases)	934.6
4707.8 kPa, Fluid (supercritical or subcritical phases)	936.1
4762.6 kPa, Liquid	939.84
4784.8 kPa, Liquid	941.44
4810.7 kPa, Liquid	943.09
4836.8 kPa, Liquid	944.88
4878.2 kPa, Liquid	947.51
4899.5 kPa, Liquid	948.95
4921.9 kPa, Liquid	950.41
4942.5 kPa, Liquid	951.63
4962.8 kPa, Liquid	952.76
4983.6 kPa, Liquid	954.01
5010.6 kPa, Liquid	955.79
5047.3 kPa, Liquid	957.89
